We go through one molecule from article PMC5218480 (PLoS ONE, 2017).

For this experiment, the system named is MV-4-11 cells. Kind of experiment: Gene expression microarray analysis (Affymetrix PrimeView) and GSEA. Type of experiment: cell-based, human. Also noted: RFU PODN (11730768_x_at) / Fold change /veh PODN (11730768_x_at) / RFU LINC00158 (11744669_a_at) / Fold change /veh LINC00158 (11744669_a_at) / RFU DUSP10 (11751237_a_at) / Fold change /veh DUSP10 (11751237_a_at) / RFU ID3 (11757404_x_at) / Fold change /veh ID3 (11757404_x_at) / RFU PLEKHG5 (11737974_s_at) / Fold change /veh PLEKHG5 (11737974_s_at) / RFU LRRC4B (11730491_at) / Fold change /veh LRRC4B (11730491_at) / RFU GIMAP4 (11747438_a_at) / Fold change /veh GIMAP4 (11747438_a_at) / RFU KRT8 (11758183_x_at) / Fold change /veh KRT8 (11758183_x_at) / RFU CNN1 (11734310_a_at) / Fold change /veh CNN1 (11734310_a_at) / RFU VPS37D (11726825_at) / Fold change /veh VPS37D (11726825_at) / RFU C10orf10 (11716522_x_at) / Fold change /veh C10orf10 (11716522_x_at) / RFU KIR2DL2 /// KIR2DL4 /// KIR2DL5A /// KIR2DL5B /// KIR2DS1 /// KIR2DS2 /// KIR2DS3 /// KIR2DS4 /// KIR3DL3 /// KIR3DL3 /// KIR3DS1 (11738374_at) / Fold change /veh KIR2DL2 /// KIR2DL4 /// KIR2DL5A /// KIR2DL5B /// KIR2DS1 /// KIR2DS2 /// KIR2DS3 /// KIR2DS4 /// KIR3DL3 /// KIR3DL3 /// KIR3DS1 (11738374_at) / RFU C1QL1 (11718748_at) / Fold change /veh C1QL1 (11718748_at) / RFU TMPRSS4 (11747572_a_at) / Fold change /veh TMPRSS4 (11747572_a_at) / RFU HAMP (11756126_x_at) / Fold change /veh HAMP (11756126_x_at) / RFU RNFT2 (11725882_a_at) / Fold change /veh RNFT2 (11725882_a_at) / RFU NR4A2 (11747474_a_at) / Fold change /veh NR4A2 (11747474_a_at) / RFU ABCC12 (11746883_a_at) / Fold change /veh ABCC12 (11746883_a_at) / RFU TMEM136 (11760407_x_at) / Fold change /veh TMEM136 (11760407_x_at) / RFU CLDN22 /// WWC2 (11732394_at) / Fold change /veh CLDN22 /// WWC2 (11732394_at) / RFU HLA-DPB1 (11760878_x_at) / Fold change /veh HLA-DPB1 (11760878_x_at) / RFU SPINT1 (11716480_a_at) / Fold change /veh SPINT1 (11716480_a_at) / RFU GAP43 (11754022_s_at) / Fold change /veh GAP43 (11754022_s_at) / RFU A4GNT (11735810_at) / Fold change /veh A4GNT (11735810_at) / RFU PRB3 (11715151_x_at) / Fold change /veh PRB3 (11715151_x_at) / RFU TUBB4B (11761932_at) / Fold change /veh TUBB4B (11761932_at) / RFU CAPN14 (11732068_a_at) / Fold change /veh CAPN14 (11732068_a_at) / RFU TMCC2 (11721928_a_at) / Fold change /veh TMCC2 (11721928_a_at) / RFU IRGQ (11745062_a_at) / Fold change /veh IRGQ (11745062_a_at) / RFU FAM174B (11720279_a_at) / Fold change /veh FAM174B (11720279_a_at) / RFU TMPRSS4 (11748680_a_at) / Fold change /veh TMPRSS4 (11748680_a_at) / RFU FAM212B (11763350_a_at) / Fold change /veh FAM212B (11763350_a_at) / RFU PLEKHG5 (11743358_a_at) / Fold change /veh PLEKHG5 (11743358_a_at) / RFU ZSCAN30 (11745921_a_at) / Fold change /veh ZSCAN30 (11745921_a_at) / RFU CMKLR1 (11741424_a_at) / Fold change /veh CMKLR1 (11741424_a_at) / RFU LOC101060620 /// MAPK8IP1 (11723275_at) / Fold change /veh LOC101060620 /// MAPK8IP1 (11723275_at) / RFU SPTSSB (11747773_x_at) / Fold change /veh SPTSSB (11747773_x_at) / RFU PRSS12 (11739890_at) / Fold change /veh PRSS12 (11739890_at) / RFU BIN1 (11741810_x_at) / Fold change /veh BIN1 (11741810_x_at) / RFU WNT11 (11732464_a_at) / Fold change /veh WNT11 (11732464_a_at) / RFU C10orf10 (11716521_a_at) / Fold change /veh C10orf10 (11716521_a_at) / RFU C5orf56 (11738089_at) / Fold change /veh C5orf56 (11738089_at) / RFU CYB561 (11721691_x_at) / Fold change /veh CYB561 (11721691_x_at) / RFU ANKRD19P (11752326_a_at) / Fold change /veh ANKRD19P (11752326_a_at) / RFU OR2T12 /// OR2T33 /// OR2T8 (11738714_s_at) / Fold change /veh OR2T12 /// OR2T33 /// OR2T8 (11738714_s_at) / RFU VCAN (11748164_a_at) / Fold change /veh VCAN (11748164_a_at) / RFU JSRP1 (11732532_at) / Fold change /veh JSRP1 (11732532_at) / RFU KRTAP10-11 (11738290_x_at) / Fold change /veh KRTAP10-11 (11738290_x_at) / RFU MYO3A (11730013_a_at) / Fold change /veh MYO3A (11730013_a_at) / RFU EBF3 (11725865_a_at) / Fold change /veh EBF3 (11725865_a_at) / RFU CAMK2N1 (11719241_x_at) / Fold change /veh CAMK2N1 (11719241_x_at) / RFU C5orf56 (11738088_a_at) / Fold change /veh C5orf56 (11738088_a_at) / RFU OLFML3 (11715873_a_at) / Fold change /veh OLFML3 (11715873_a_at) / RFU LOC100653217 /// NTM (11731650_a_at) / Fold change /veh LOC100653217 /// NTM (11731650_a_at) / RFU MAPK11 (11762145_a_at) / Fold change /veh MAPK11 (11762145_a_at) / RFU FIZ1 (11724087_x_at) / Fold change /veh FIZ1 (11724087_x_at) / RFU OASL (11726364_x_at) / Fold change /veh OASL (11726364_x_at) / RFU SOX15 (11748057_x_at) / Fold change /veh SOX15 (11748057_x_at) / RFU CD79A (11719716_a_at) / Fold change /veh CD79A (11719716_a_at) / RFU HIST1H1D (11736915_at) / Fold change /veh HIST1H1D (11736915_at) / RFU CASKIN2 (11723855_a_at) / Fold change /veh CASKIN2 (11723855_a_at) / RFU LOC730098 (11760151_x_at) / Fold change /veh LOC730098 (11760151_x_at) / RFU OR4N2 (11742367_at) / Fold change /veh OR4N2 (11742367_at) / RFU PRRT2 (11749266_a_at) / Fold change /veh PRRT2 (11749266_a_at) / RFU SNX32 (11753110_a_at) / Fold change /veh SNX32 (11753110_a_at) / RFU CDHR5 (11726645_a_at) / Fold change /veh CDHR5 (11726645_a_at) / RFU RCAN1 (11760418_a_at) / Fold change /veh RCAN1 (11760418_a_at) / RFU FAM167A (11723789_a_at) / Fold change /veh FAM167A (11723789_a_at) / RFU FAM26E (11764081_at) / Fold change /veh FAM26E (11764081_at) / RFU ISYNA1 (11749810_s_at) / Fold change /veh ISYNA1 (11749810_s_at) / RFU ACY1 (11761880_at) / Fold change /veh ACY1 (11761880_at) / RFU 11764098_at / Fold change /veh 11764098_at / RFU SAMD14 (11745864_x_at) / Fold change /veh SAMD14 (11745864_x_at) / RFU NPB (11741838_a_at) / Fold change /veh NPB (11741838_a_at) / RFU TMPRSS6 (11731388_a_at) / Fold change /veh TMPRSS6 (11731388_a_at) / RFU KRTAP10-2 (11738614_at) / Fold change /veh KRTAP10-2 (11738614_at) / RFU ARHGAP8 /// PRR5-ARHGAP8 (11727945_x_at) / Fold change /veh ARHGAP8 /// PRR5-ARHGAP8 (11727945_x_at) / RFU KRTAP5-7 /// NADSYN1 (11734609_at) / Fold change /veh KRTAP5-7 /// NADSYN1 (11734609_at) / RFU RASL12 (11751679_a_at) / Fold change /veh RASL12 (11751679_a_at) / RFU CDKN2B (11736163_a_at) / Fold change /veh CDKN2B (11736163_a_at) / RFU PRF1 (11729649_at) / Fold change /veh PRF1 (11729649_at) / RFU, ZNF638 /// ZNF638-IT1 / Fold change vs veh, ZNF638 /// ZNF638-IT1 / RFU, PANK3 / Fold change vs veh, PANK3 / RFU, SH3YL1 / Fold change vs veh, SH3YL1 / RFU, ZEB2 / Fold change vs veh, ZEB2 / RFU, NRIP1 / Fold change vs veh, NRIP1 / RFU, PTTG1IP / Fold change vs veh, PTTG1IP / RFU, CAPN2 / Fold change vs veh, CAPN2 / RFU, MED14 / Fold change vs veh, MED14 / RFU, SNORA58 / Fold change vs veh, SNORA58 / RFU, C1orf63 / Fold change vs veh, C1orf63 / RFU, LRRFIP1 / Fold change vs veh, LRRFIP1 / RFU, NDUFAF7 / Fold change vs veh, NDUFAF7 / RFU, SLC12A2 / Fold change vs veh, SLC12A2 / RFU, IBTK / Fold change vs veh, IBTK / RFU, ESF1 / Fold change vs veh, ESF1 / Fold change vs veh, TMEM50B / RFU, TAOK1 / Fold change vs veh, TAOK1 / RFU, ACBD3 / Fold change vs veh, ACBD3 / RFU, TMA16 / Fold change vs veh, TMA16 / RFU, RWDD3 / Fold change vs veh, RWDD3 / RFU, BCAT1 / Fold change vs veh, BCAT1 / RFU, EDEM3 / Fold change vs veh, EDEM3 / RFU, TMEM33 / Fold change vs veh, TMEM33 / RFU, WDR75 / Fold change vs veh, WDR75 / RFU, AHCTF1 / Fold change vs veh, AHCTF1 / RFU, TFRC / Fold change vs veh, TFRC / RFU, ZDHHC17 / Fold change vs veh, ZDHHC17 / RFU, NOM1 / Fold change vs veh, NOM1 / RFU, ARL8B / Fold change vs veh, ARL8B / RFU, ZBTB11 / Fold change vs veh, ZBTB11 / RFU, TAMM41 / Fold change vs veh, TAMM41 / RFU, KIAA1704 /// LOC100996395 / Fold change vs veh, KIAA1704 /// LOC100996395 / RFU, ING1 / Fold change vs veh, ING1 / RFU, TRMT61B / Fold change vs veh, TRMT61B / RFU, FUBP3 / Fold change vs veh, FUBP3 / RFU, TP53 / Fold change vs veh, TP53 / RFU, TNKS2 / Fold change vs veh, TNKS2 / RFU, ZFP14 / Fold change vs veh, ZFP14 / RFU, ACTR2 / Fold change vs veh, ACTR2 / RFU, PPP3R1 / Fold change vs veh, PPP3R1 / RFU, PIK3R1 / Fold change vs veh, PIK3R1 / RFU, HNRNPA1 / Fold change vs veh, HNRNPA1 / RFU, RNF170 / Fold change vs veh, RNF170 / RFU, ZNF28 / Fold change vs veh, ZNF28 / RFU, RNGTT / Fold change vs veh, RNGTT / RFU, OGT / Fold change vs veh, OGT / RFU, BRD1 / Fold change vs veh, BRD1 / RFU, MARS / Fold change vs veh, MARS / RFU, ZNF655 / Fold change vs veh, ZNF655 / RFU, FAHD1 / Fold change vs veh, FAHD1 / RFU, BDP1 / Fold change vs veh, BDP1 / RFU, LRRCC1 / Fold change vs veh, LRRCC1 / RFU, ARID1A / Fold change vs veh, ARID1A / RFU, ZNF146 / Fold change vs veh, ZNF146 / RFU, ZNF330 / Fold change vs veh, ZNF330 / RFU, GPN3 / Fold change vs veh, GPN3 / RFU, C9orf123 / Fold change vs veh, C9orf123 / RFU, N4BP2L2 / Fold change vs veh, N4BP2L2 / RFU, ARFIP1 / Fold change vs veh, ARFIP1 / RFU, FAM179B / Fold change vs veh, FAM179B / RFU, BCL10 / Fold change vs veh, BCL10 / RFU, UHRF1BP1L / Fold change vs veh, UHRF1BP1L / RFU, BET1 / Fold change vs veh, BET1 / RFU, CNOT2 / Fold change vs veh, CNOT2 / RFU, ZNF268 / Fold change vs veh, ZNF268 / Fold change vs veh, ZNF507 / RFU, DGCR2 / Fold change vs veh, DGCR2 / RFU, WDSUB1 / Fold change vs veh, WDSUB1 / Fold change vs veh, HSP90B1 /// MIR3652 / RFU, ADSS / Fold change vs veh, ADSS / RFU, GK / Fold change vs veh, GK / RFU, ZNF148 / Fold change vs veh, ZNF148 / RFU, TAF9 / Fold change vs veh, TAF9 / RFU, SLC1A5 / Fold change vs veh, SLC1A5 / RFU, SLMO2 / Fold change vs veh, SLMO2 / RFU, ABCC4 / Fold change vs veh, ABCC4 / RFU, LOC101060439 /// RAP1B / Fold change vs veh, LOC101060439 /// RAP1B / RFU, RFX7 / Fold change vs veh, RFX7 / RFU, GTPBP10 / Fold change vs veh, GTPBP10 / RFU, CNEP1R1 / Fold change vs veh, CNEP1R1 / RFU, BIVM-ERCC5 /// ERCC5 / Fold change vs veh, BIVM-ERCC5 /// ERCC5 / RFU, ILF3 / Fold change vs veh, ILF3 / RFU 11762660_at / Fold change /veh 11762660_at / RFU VCAN (11757783_s_at) / Fold change /veh VCAN (11757783_s_at) / RFU DDX43 (11728927_at) / Fold change /veh DDX43 (11728927_at) / RFU KRT8 (11758188_x_at) / Fold change /veh KRT8 (11758188_x_at) / RFU NKD1 (11759106_at) / Fold change /veh NKD1 (11759106_at) / RFU SRD5A1 (11742802_a_at) / Fold change /veh SRD5A1 (11742802_a_at) / RFU TPSAB1 /// TPSB2 (11721975_s_at) / Fold change /veh TPSAB1 /// TPSB2 (11721975_s_at) / RFU GSTM3 (11746129_a_at) / Fold change /veh GSTM3 (11746129_a_at) / RFU IL23R (11737362_x_at) / Fold change /veh IL23R (11737362_x_at) / RFU TMEM51 (11727254_a_at) / Fold change /veh TMEM51 (11727254_a_at) / RFU PIWIL2 (11732686_x_at) / Fold change /veh PIWIL2 (11732686_x_at) / RFU ORM1 (11744905_x_at) / Fold change /veh ORM1 (11744905_x_at) / RFU CCDC152 (11743942_at) / Fold change /veh CCDC152 (11743942_at) / RFU ECM1 (11717891_a_at) / Fold change /veh ECM1 (11717891_a_at) / RFU IL23R (11748794_a_at) / Fold change /veh IL23R (11748794_a_at) / RFU TNFAIP8L3 (11732012_x_at) / Fold change /veh TNFAIP8L3 (11732012_x_at) / RFU MBOAT4 (11741988_at) / Fold change /veh MBOAT4 (11741988_at) / RFU 11764193_at / Fold change /veh 11764193_at / RFU TMEM53 (11763286_at) / Fold change /veh TMEM53 (11763286_at) / RFU MAGEB2 (11727129_at) / Fold change /veh MAGEB2 (11727129_at) / RFU TMEM200A (11744735_a_at) / Fold change /veh TMEM200A (11744735_a_at) / RFU CCDC152 (11751479_a_at) / Fold change /veh CCDC152 (11751479_a_at) / RFU FAM211A (11726209_a_at) / Fold change /veh FAM211A (11726209_a_at) / RFU RGS16 (11746705_a_at) / Fold change /veh RGS16 (11746705_a_at) / RFU VCAN (11755009_s_at) / Fold change /veh VCAN (11755009_s_at) / RFU RHOB (11743442_s_at) / Fold change /veh RHOB (11743442_s_at) / RFU RGS16 (11720943_a_at) / Fold change /veh RGS16 (11720943_a_at) / RFU RGS16 (11720944_at) / Fold change /veh RGS16 (11720944_at) / RFU, VPS4B / Fold change vs veh, VPS4B / RFU, CREB1 / Fold change vs veh, CREB1 / RFU, DNAJC13 / Fold change vs veh, DNAJC13 / RFU, GNAQ / Fold change vs veh, GNAQ / RFU, CDK5R1 / Fold change vs veh, CDK5R1 / RFU, ZRANB3 / Fold change vs veh, ZRANB3 / RFU, CUL4A / Fold change vs veh, CUL4A / RFU, CCNY / Fold change vs veh, CCNY / RFU, UFL1 / Fold change vs veh, UFL1 / RFU, COG3 / Fold change vs veh, COG3 / RFU, DIAPH2 / Fold change vs veh, DIAPH2 / RFU, SKA2 / Fold change vs veh, SKA2 / RFU, AFF3 / Fold change vs veh, AFF3 / RFU, LMF1 / Fold change vs veh, LMF1 / RFU, IPO11 / Fold change vs veh, IPO11 / RFU, DFFB / Fold change vs veh, DFFB / RFU, FOXP1 / Fold change vs veh, FOXP1 / RFU, CARD8 / Fold change vs veh, CARD8 / RFU, STRN3 / Fold change vs veh, STRN3 / RFU, ADK / Fold change vs veh, ADK / RFU, RASSF2 / Fold change vs veh, RASSF2 / RFU, WIPF1 / Fold change vs veh, WIPF1 / RFU, LARP1B / Fold change vs veh, LARP1B / RFU, RASA1 / Fold change vs veh, RASA1 / RFU, RB1 / Fold change vs veh, RB1 / RFU, PPFIA1 / Fold change vs veh, PPFIA1 / RFU, MAT2A / Fold change vs veh, MAT2A / RFU, CCT5 / Fold change vs veh, CCT5 / RFU, WDR92 / Fold change vs veh, WDR92 / RFU, CUX1 / Fold change vs veh, CUX1 / RFU, TTC7A / Fold change vs veh, TTC7A / RFU, TMEM135 / Fold change vs veh, TMEM135 / RFU, DEPTOR / Fold change vs veh, DEPTOR / RFU, CPM / Fold change vs veh, CPM / RFU, DNAJB6 / Fold change vs veh, DNAJB6 / RFU, CACNA2D3 / Fold change vs veh, CACNA2D3 / RFU, DTX4 / Fold change vs veh, DTX4 / RFU, TFCP2 / Fold change vs veh, TFCP2 / RFU, GMCL1 /// GMCL1P1 / Fold change vs veh, GMCL1 /// GMCL1P1 / RFU, AEBP2 / Fold change vs veh, AEBP2 / RFU, SNHG1 /// SNORD22 /// SNORD25 /// SNORD26 /// SNORD27 /// SNORD28 /// SNORD29 /// SNORD31 / Fold change vs veh, SNHG1 /// SNORD22 /// SNORD25 /// SNORD26 /// SNORD27 /// SNORD28 /// SNORD29 /// SNORD31 / Fold change (Aza/veh), C12orf56 (ProbeSet 11735607_a_at) / Fold change (ACY-1035/veh), C12orf56 (ProbeSet 11735607_a_at) / Fold change (Aza/veh), FGFR1OP (ProbeSet 11751329_s_at) / Fold change (ACY-1035/veh), FGFR1OP (ProbeSet 11751329_s_at) / Fold change (Aza/veh), VPS36 (ProbeSet 11739960_a_at) / Fold change (ACY-1035/veh), VPS36 (ProbeSet 11739960_a_at) / RFU SYPL1 (11715823_x_at) / Fold change /veh SYPL1 (11715823_x_at) / RFU IGFBP7 (11715501_s_at) / Fold change /veh IGFBP7 (11715501_s_at) / RFU REEP3 (11722064_at) / Fold change /veh REEP3 (11722064_at) / RFU IGLL1 (11728026_x_at) / Fold change /veh IGLL1 (11728026_x_at): dose or concentration left out as unconfirmed. To be noted: ProbeSet 11727641_at; LIST B.

Turning to `Nc1ncn([C@@H]2O[C@H](CO)[C@@H](O)[C@H]2O)c(=O)n1` [azacitidine], the “Fold change vs veh, NOM1” value is 1.06.
